Test results taken from PMC8657435, “Adamantane-Substituted Purines and Their β-Cyclodextrin Complexes: Synthesis and Biological Activity” (International Journal of Molecular Sciences, 2021).
“And” between values parts separate entries of the source, which are not always exact repeats. Identical values can stand only once. Like-named read-outs stand apart in the source and are kept apart here.

Assays:
K-562 [1] = test system: K-562; design: method as in Popowycz et al. [51]; details: single purine; ref Popowycz et al. [51]; cited from earlier work
MCF-7 [2] = test system: MCF-7; design: method as in Popowycz et al. [51]; details: single purine; ref Popowycz et al. [51]; cited from earlier work
CDK2 = details: no inhibition activity; read-out: IC50 towards CDK2; cited from earlier work
CDK2/cyclin E [3] = biological target: T1, CDK2/cyclin E (Homo sapiens, UniProt P24941); details: Figure 1; cited from earlier work
CDK1 = test system: CDK1; design: method as in PMID 24900429; details: no inhibition activity; read-out: IC50 towards CDK1; cited from earlier work
CDK2/cyclin E [4] = biological target: T1, CDK2/cyclin E; assay: CDK2/cyclin E kinase inhibition assay ([γ-33P]ATP, peptide substrate); format: biochemical
Experimental: CDK2/cyclin E activity was assayed as previously described. Briefly, the kinase was assayed with [γ-^33P]ATP and suitable peptide substrates in a reaction buffer (60 mM HEPES-NaOH, pH 7.5, 3 mM MgCl2, 3 mM MnCl2, 3 μM Na-orthovanadate, 1.2 mM DTT, 2.5 μg/50 μL PEG20.000). The reactions were stopped by adding 5 µL of 3% aq. H3PO4. Aliquots were spotted onto P-81 phosphocellulose, washed with 0.5% aq. H3PO4 and air-dried. Kinase inhibition was quantified using an FLA-7000 digital image analyser.

K-562 [5] = assay: In vitro cytotoxicity / antiproliferative activity, resazurin viability assay, 72 h; format: cell-based, human
MCF-7 [6] = assay: as above; format: cell-based, human
[7] = mixture purine·β-CD 1:1 molar ratio, read-out: CDK2/Cyclin E IC50, Purine·β-CD (1:1)
[8] = mixture purine·β-CD 1:10 molar ratio, read-out: CDK2/Cyclin E IC50, Purine·β-CD (1:10)
[9] = single purine, no β-CD, mean ± SD of duplicated experiments, read-out: CDK2/Cyclin E IC50, Purine
[10] = Homo sapiens, K562, single purine, 72 h, read-out: K-562 GI50, Purine
[11] = mixture purine·β-CD 1:1, 72 h, read-out: K-562 GI50, Purine·β-CD (1:1)
[12] = mixture purine·β-CD 1:10, 72 h, read-out: K-562 GI50, Purine·β-CD (1:10)
[13] = Homo sapiens, MCF7, single purine, 72 h, read-out: MCF-7 GI50, Purine
[14] = mixture purine·β-CD 1:1, 72 h, read-out: MCF-7 GI50, Purine·β-CD (1:1)
[15] = mixture purine·β-CD 1:10, 72 h, read-out: MCF-7 GI50, Purine·β-CD (1:10)
[16] = mixture purine·β-CD 1:1 molar ratio
[17] = mixture purine·β-CD 1:10 molar ratio
[18] = single purine, no β-CD, mean ± SD of duplicated experiments

SMILES	IC50 (CDK2/cyclin E [4]; [7])	IC50 (CDK2/cyclin E [4]; [8])	IC50 (CDK2/cyclin E [4]; [9])	GI50 (K-562 [5]; [10])	GI50 (K-562 [5]; [11])	GI50 (K-562 [5]; [12])	GI50 (MCF-7 [6]; [13])	GI50 (MCF-7 [6]; [14])	GI50 (MCF-7 [6]; [15])	melting point	CDK2/Cyclin E IC50, Purine·β-CD (1:1) (CDK2/cyclin E [4]; [16])	other results
CC[C@H](CO)Nc1nc(NCc2ccccc2)c2ncn(C(C)C)c2n1 [Compound 4l, roscovitine]												GI50 (K-562 [1]): 50.1 µM; GI50 (MCF-7 [2]): 12.6 µM
CC(C)n1cnc2c(NC34CC5CC(CC(C5)C3)C4)nc(NCCCO)nc21 [Compound 4m, 6-[(1-adamantyl)amino]-2-[(3-hydroxypropyl)amino]-9-(propan-2-yl)purine]												IC50 (CDK2): > 100 µM; IC50 (CDK2/cyclin E [3]): > 100 µM; IC50 (CDK1): > 100 µM
CC(C)n1cnc2c(NC34CC5CC(CC(C5)C3)C4)nc(NCC(O)CO)nc21 (stereo not drawn) [Compound 4n]												IC50 (CDK2/cyclin E [3]): > 100 µM
CC(C)n1cnc2c(NCc3cccc(C(=O)CC45CC6CC(CC(C6)C4)C5)c3)nc(NCCCO)nc21 [Compound 4i]	> 40 µM	30.7 µM	> 10 µM and 14 µM	> 6.25 µM	19.8 ± 0.5 µM	> 40 µM	> 6.25 µM	30 ± 5 µM	> 40 µM	64 to 69 °C		
CC(C)n1cnc2c(Nc3ccc(CC45CC6CC(CC(C6)C4)C5)cc3)nc(NCCCO)nc21 [Compound 4f, 3-{[6-{[4-(1-Adamantylmethyl)phenyl]amino}-9-isopropyl-9H-purin-2-yl]amino}propan-1-ol]	> 40 µM	> 40 µM	> 12.5 µM	10.4 ± 0.7 µM	24 ± 3 µM	> 40 µM	> 12.5 µM	32.9 ± 0.1 µM	> 40 µM		no activity	CDK2/Cyclin E IC50, Purine·β-CD (1:10) (CDK2/cyclin E [4]; [17]): no activity; CDK2/Cyclin E IC50, Purine (CDK2/cyclin E [4]; [18]): no activity
CC(C)n1cnc2c(Nc3cccc(C(=O)C45CC6CC(CC(C6)C4)C5)c3)nc(NCCCO)nc21 [Compound 4a, (1-Adamantyl)[3-({2-[(3-hydroxypropyl)amino]-9-isopropyl-9H-purin-6-yl}amino)phenyl]methanone]	5.5 ± 1.3 µM	> 40 µM	2.55 ± 0.08 µM	6.16 µM	15 ± 0.16 µM	> 40 µM	> 6.25 µM	15.7 ± 0.9 µM	> 40 µM			
CC(C)n1cnc2c(Nc3cccc(CCC45CC6CC(CC(C6)C4)C5)c3)nc(NCCCO)nc21 [Compound 4h, 3-{[6-({3-[2-(1-Adamantyl)ethyl]phenyl}amino)-9-isopropyl-9H-purin-2-yl]amino}propan-1-ol]	> 40 µM	> 40 µM	> 12.5 µM	> 12.5 µM	> 40 µM	> 40 µM	> 12.5 µM	> 40 µM	> 40 µM	72 to 78 °C	no activity	CDK2/Cyclin E IC50, Purine·β-CD (1:10) (CDK2/cyclin E [4]; [17]): no activity; CDK2/Cyclin E IC50, Purine (CDK2/cyclin E [4]; [18]): no activity
CC(C)n1cnc2c(Nc3ccc(C(=O)C45CC6CC(CC(C6)C4)C5)cc3)nc(NCCCO)nc21 [Compound 4d, (1-Adamantyl)[4-({2-[(3-hydroxypropyl)amino]-9-isopropyl-9H-purin-6-yl}amino)phenyl]methanone]	1.4 ± 0.5 µM	7.57 µM	0.6 ± 0.2 µM	5.45 µM	16.5 ± 0.7 µM	> 40 µM	5.72 µM	13.8 ± 1.4 µM	> 40 µM			IC50 (CDK2/cyclin E [4]; single purine, read-out: CDK2/cyclin E IC50): 0.58 µM; Fold more potent at inhibiting cell proliferation on K-562 than bohemine (K-562 [5]; single purine): 17.8 fold; Fold more potent at inhibiting cell proliferation on K-562 than roscovitine (K-562 [5]; single purine): 9.2 fold; Efficacy on MCF-7, fold higher than bohemine (MCF-7 [6]; single purine): 4.7 fold; Efficacy on MCF-7, fold higher than roscovitine (MCF-7 [6]; single purine): 2.2 fold
CC(C)n1cnc2c(Nc3cccc(C(O)CC45CC6CC(CC(C6)C4)C5)c3)nc(NCCCO)nc21 (stereo not drawn) [Compound 4g, 3-{[6-({3-[2-(1-Adamantyl)-1-hydroxyethyl]phenyl}amino)-9-isopropyl-9H-purin-2-yl]amino}propan-1-ol]	1.24 µM	7.15 µM	0.92 ± 0.18 µM	> 6.25 µM	33.6 ± 1.2 µM	> 40 µM	> 6.25 µM	17 ± 2 µM	> 40 µM	87 to 91 °C	essentially consistent with their non-complexed forms	
CC(C)n1cnc2c(Nc3cccc(C(O)C45CC6CC(CC(C6)C4)C5)c3)nc(NCCCO)nc21 (stereo not drawn) [Compound 4b, 3-{[6-({3-[1-Adamantyl(hydroxy)methyl]phenyl}amino)-9-isopropyl-9H-purin-2-yl]amino}propan-1-ol]	0.16 µM	0.3 ± 0.2 µM	0.21 ± 0.02 µM	> 6.25 µM	34.69 ± 0.14 µM	> 40 µM	> 6.25 µM	32 ± 3 µM	> 40 µM	88 to 93 °C	essentially consistent with their non-complexed forms	Activity on CDK2/cyclin E, fold higher than bohemine (CDK2/cyclin E [4]; single purine, versus bohemine (4k)): 3.5 fold
CC(C)n1cnc2c(Nc3ccc(C(O)C45CC6CC(CC(C6)C4)C5)cc3)nc(NCCCO)nc21 (stereo not drawn) [Compound 4e, 3-{[6-({4-[1-Adamantyl(hydroxy)methyl]phenyl}amino)-9-isopropyl-9H-purin-2-yl]amino}propan-1-ol]	1.53 µM	26.1 µM	1.6 ± 0.7 µM	10.1 ± 0.8 µM	18.7 ± 0.6 µM	> 40 µM	8.1 ± 0.7 µM	17 ± 2 µM	> 40 µM		essentially consistent with their non-complexed forms	
CC(C)n1cnc2c(NCc3ccc(C(=O)CC45CC6CC(CC(C6)C4)C5)cc3)nc(NCCCO)nc21 [Compound 4j]	15.7 µM	20.9 µM	3.26 ± 0.01 µM	> 6.25 µM	17.7 ± 0.6 µM	> 40 µM	> 6.25 µM	21.51 ± 0.04 µM	> 40 µM			Activity on CDK2/cyclin E, fold higher than meta-analogue 4i (CDK2/cyclin E [4]; single purine, para versus meta): 4.3 fold
CC(C)n1cnc2c(Nc3cccc(CC45CC6CC(CC(C6)C4)C5)c3)nc(NCCCO)nc21 [Compound 4c, 3-{[6-{[3-(1-Adamantylmethyl)phenyl]amino}-9-isopropyl-9H-purin-2-yl]amino}propan-1-ol]	1.85 µM	> 40 µM	> 10 µM and 12 µM	> 6.25 µM	28.7 ± 10.2 µM	> 40 µM	> 6.25 µM	> 40 µM	> 40 µM	88 to 93 °C		
